Literature values as cited in PMC9516332 (Frontiers in Oncology, 2022).
Read-outs that look alike come from different tables or passages of the source.

Experiments:
Details in all cases: cited from earlier work
[1] = molecular target: panel of 255 wild-type kinases (Homo sapiens, UniProt O75582)
[2] = molecular target: T1, panel of 255 wild-type kinases (Homo sapiens, UniProt P15735)
T1 sequence (P15735 1-406): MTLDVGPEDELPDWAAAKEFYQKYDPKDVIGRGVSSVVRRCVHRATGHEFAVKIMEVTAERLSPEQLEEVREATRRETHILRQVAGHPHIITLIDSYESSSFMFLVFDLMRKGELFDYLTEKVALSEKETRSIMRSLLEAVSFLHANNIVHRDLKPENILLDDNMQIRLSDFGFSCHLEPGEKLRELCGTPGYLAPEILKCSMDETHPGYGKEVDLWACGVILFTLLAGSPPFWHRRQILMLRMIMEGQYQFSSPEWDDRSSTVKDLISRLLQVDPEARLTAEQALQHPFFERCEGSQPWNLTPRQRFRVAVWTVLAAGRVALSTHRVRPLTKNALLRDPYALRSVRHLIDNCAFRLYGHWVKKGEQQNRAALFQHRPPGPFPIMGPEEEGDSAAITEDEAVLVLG

[3] = molecular target: panel of 255 wild-type kinases (Homo sapiens, UniProt P24723)
[4] = molecular target: panel of 255 wild-type kinases (Homo sapiens, UniProt P42684)
[5] = molecular target: panel of 255 wild-type kinases (Homo sapiens, UniProt P51957)
[6] = molecular target: panel of 255 wild-type kinases (Homo sapiens, UniProt Q02763)
[7] = molecular target: panel of 255 wild-type kinases (Homo sapiens, UniProt Q05397)
[8] = molecular target: T2, panel of 255 wild-type kinases (Homo sapiens, UniProt Q8TF76)
T2 sequence (Q8TF76 1-798): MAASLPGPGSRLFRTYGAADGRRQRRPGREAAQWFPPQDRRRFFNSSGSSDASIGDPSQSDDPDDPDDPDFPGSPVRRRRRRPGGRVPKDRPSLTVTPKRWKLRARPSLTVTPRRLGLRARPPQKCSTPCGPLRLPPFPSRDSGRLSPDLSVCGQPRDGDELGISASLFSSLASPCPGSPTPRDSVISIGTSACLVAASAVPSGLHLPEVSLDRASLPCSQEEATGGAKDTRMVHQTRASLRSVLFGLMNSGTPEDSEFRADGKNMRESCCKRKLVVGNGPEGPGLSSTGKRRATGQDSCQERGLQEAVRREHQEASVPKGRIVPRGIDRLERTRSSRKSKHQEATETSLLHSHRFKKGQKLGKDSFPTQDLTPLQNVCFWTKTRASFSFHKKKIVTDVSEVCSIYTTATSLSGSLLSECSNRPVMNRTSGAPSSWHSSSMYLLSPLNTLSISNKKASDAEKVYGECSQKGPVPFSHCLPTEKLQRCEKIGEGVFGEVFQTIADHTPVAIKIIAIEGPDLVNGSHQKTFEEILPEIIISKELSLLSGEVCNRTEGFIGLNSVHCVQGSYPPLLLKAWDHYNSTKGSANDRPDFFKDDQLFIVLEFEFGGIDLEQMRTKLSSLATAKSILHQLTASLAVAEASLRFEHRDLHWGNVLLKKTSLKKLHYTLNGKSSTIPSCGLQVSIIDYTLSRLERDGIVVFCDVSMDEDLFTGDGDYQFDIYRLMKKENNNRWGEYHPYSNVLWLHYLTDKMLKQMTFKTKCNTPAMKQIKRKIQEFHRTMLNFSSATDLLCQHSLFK

[9] = molecular target: panel of 255 wild-type kinases (Homo sapiens, UniProt Q96RG2)
[10] = molecular target: panel of 255 wild-type kinases (Homo sapiens, UniProt Q9H2X6)
[11] = molecular target: panel of 255 wild-type kinases (Homo sapiens, UniProt Q9NQU5)
[12] = molecular target: panel of 255 wild-type kinases (Homo sapiens, UniProt Q9Y2H1)
[13] = MSK1, 1 µmol/L single concentration, ref DOI: 10.1158/1535-7163.MCT-18-0877
[14] = kinase PHKG2, 1 µmol/L single concentration, ref DOI: 10.1158/1535-7163.MCT-18-0877
[15] = kinase PKCη, 1 µmol/L single concentration, ref DOI: 10.1158/1535-7163.MCT-18-0877
[16] = ARG kinase assay, 1 µmol/L single concentration, ref DOI: 10.1158/1535-7163.MCT-18-0877
[17] = NEK4, 1 µmol/L single concentration, ref DOI: 10.1158/1535-7163.MCT-18-0877
[18] = kinase TIE2, 1 µmol/L single concentration, ref DOI: 10.1158/1535-7163.MCT-18-0877
[19] = kinase FAK, 1 µmol/L single concentration, ref DOI: 10.1158/1535-7163.MCT-18-0877
[20] = kinase Haspin, 1 µmol/L single concentration, ref DOI: 10.1158/1535-7163.MCT-18-0877
[21] = PASK, 1 µmol/L single concentration, ref DOI: 10.1158/1535-7163.MCT-18-0877
[22] = kinase HIPK2, 1 µmol/L single concentration, ref DOI: 10.1158/1535-7163.MCT-18-0877
[23] = PAK6, 1 µmol/L single concentration, ref DOI: 10.1158/1535-7163.MCT-18-0877
[24] = NDR2, 1 µmol/L single concentration, ref DOI: 10.1158/1535-7163.MCT-18-0877
[25] = MSK1, 1 µmol/L single concentration, ref DOI: 10.1371/journal.pone.0092146
[26] = kinase PHKG2, 1 µmol/L single concentration, ref DOI: 10.1371/journal.pone.0092146
[27] = kinase PKCη, 1 µmol/L single concentration, ref DOI: 10.1371/journal.pone.0092146
[28] = ARG kinase assay, 1 µmol/L single concentration, ref DOI: 10.1371/journal.pone.0092146
[29] = NEK4, 1 µmol/L single concentration, ref DOI: 10.1371/journal.pone.0092146
[30] = kinase TIE2, 1 µmol/L single concentration, ref DOI: 10.1371/journal.pone.0092146
[31] = kinase FAK, 1 µmol/L single concentration, ref DOI: 10.1371/journal.pone.0092146
[32] = kinase Haspin, 1 µmol/L single concentration, ref DOI: 10.1371/journal.pone.0092146
[33] = PASK, 1 µmol/L single concentration, ref DOI: 10.1371/journal.pone.0092146
[34] = kinase HIPK2, 1 µmol/L single concentration, ref DOI: 10.1371/journal.pone.0092146
[35] = PAK6, 1 µmol/L single concentration, ref DOI: 10.1371/journal.pone.0092146
[36] = NDR2, 1 µmol/L single concentration, ref DOI: 10.1371/journal.pone.0092146

Row | Compound | %-inhibition, MSK1 [1, 13] | %-inhibition at 1 µmol/L, PHKG2 [2, 14] | %-inhibition at 1 µmol/L, PKCη [3, 15] | %-inhibition ARG [4, 16] | %-inhibition, NEK4 [5, 17] | %-inhibition at 1 µmol/L, TIE2 [6, 18] | %-inhibition at 1 µmol/L, FAK [7, 19] | %-inhibition at 1 µmol/L, Haspin [8, 20] | %-inhibition, PASK [9, 21] | %-inhibition at 1 µmol/L, HIPK2 [10, 22] | %-inhibition, PAK6 [11, 23] | %-inhibition, NDR2 [12, 24] | %-inhibition, MSK1 [1, 25] | %-inhibition at 1 µmol/L, PHKG2 [2, 26] | %-inhibition at 1 µmol/L, PKCη [3, 27] | %-inhibition ARG [4, 28] | %-inhibition, NEK4 [5, 29] | %-inhibition at 1 µmol/L, TIE2 [6, 30] | %-inhibition at 1 µmol/L, FAK [7, 31] | %-inhibition at 1 µmol/L, Haspin [8, 32] | further results
1 | O=C(c1ccc(F)c(F)c1Nc1ccc(I)cc1F)N1CC(O)([C@@H]2CCCCN2)C1 [cobimetinib] | -3% | 2.22% | -2% | -1.54% | 5% | 19% | -4% | 8% | 1.07% | 1.68% | 2% | 2.54% | – | – | – | – | – | – | – | – | –
2 | CC(C)(C)c1nc(-c2cccc(NS(=O)(=O)c3c(F)cccc3F)c2F)c(-c2ccnc(N)n2)s1 [dabrafenib] | – | – | – | – | – | – | – | – | – | – | – | – | 0.0759% | 2% | 9% | 54% | 4% | 81% | 13% | 9% | %-inhibition, PASK [9, 33]: 1.12%; %-inhibition at 1 µmol/L, HIPK2 [10, 34]: 42%; %-inhibition, PAK6 [11, 35]: 9%; %-inhibition, NDR2 [12, 36]: -2%
3 | Cc1cc(Nc2ncc(Cl)c(Nc3ccccc3S(=O)(=O)C(C)C)n2)c(OC(C)C)cc1C1CCNCC1 [ceritinib] | -1.09% | 83% | 5.3% | -1.08% | -3.48% | -13% | 100% | 7% | 1.28% | 37% | 18% | 14% | – | – | – | – | – | – | – | – | –
4 | CCc1cc2c(cc1N1CCC(N3CCOCC3)CC1)C(C)(C)c1[nH]c3cc(C#N)ccc3c1C2=O [alectinib] | 0.0374% | 75% | 10% | 1% | -1.16% | 2% | 17% | 8% | -2.6% | 8% | -8% | 4% | – | – | – | – | – | – | – | – | –
5 | CCCS(=O)(=O)Nc1ccc(F)c(C(=O)c2c[nH]c3ncc(-c4ccc(Cl)cc4)cc23)c1F [vemurafenib] | – | – | – | – | – | – | – | – | – | – | – | – | 0.256% | -4.37% | -22% | 7% | -0.416% | -2.42% | -3.55% | -3% | %-inhibition, PASK [9, 33]: 2.35%; %-inhibition at 1 µmol/L, HIPK2 [10, 34]: -5%; %-inhibition, PAK6 [11, 35]: -7%; %-inhibition, NDR2 [12, 36]: -2.51%
6 | COc1cc(N2CCC(N3CCN(C)CC3)CC2)ccc1Nc1ncc(Cl)c(Nc2ccccc2P(C)(C)=O)n1 [brigatinib] | – | – | – | – | – | – | – | – | – | – | – | – | – | – | – | – | – | – | – | – | %-inhibition, MSK1 [1]: 23%; %-inhibition at 1 µmol/L, PHKG2 [2]: 96%; %-inhibition at 1 µmol/L, PKCη [3]: 17%; %-inhibition ARG [4]: 55%; %-inhibition, NEK4 [5]: 25%; %-inhibition at 1 µmol/L, TIE2 [6]: 75%; %-inhibition at 1 µmol/L, FAK [7]: 99%; %-inhibition at 1 µmol/L, Haspin [8]: 9%; %-inhibition, PASK [9]: -5%; %-inhibition at 1 µmol/L, HIPK2 [10]: 9%; %-inhibition, PAK6 [11]: 26%; %-inhibition, NDR2 [12]: 62%
7 | CC(=O)Nc1cccc(-n2c(=O)n(C3CC3)c(=O)c3c(Nc4ccc(I)cc4F)n(C)c(=O)c(C)c32)c1 [trametinib] | – | – | – | – | – | – | – | – | – | – | – | – | -0.531% | 2.81% | -8% | -4% | 2% | -7% | -2.41% | 5% | %-inhibition, PASK [9, 33]: -0.187%; %-inhibition at 1 µmol/L, HIPK2 [10, 34]: 0.155%; %-inhibition, PAK6 [11, 35]: 8%; %-inhibition, NDR2 [12, 36]: -1.48%
